Ki and IC50 data for seven compounds are collected here from patent US20240199635A1, “TETRAHYDROTHIENO PYRIDINE DERIVATIVES AS DDRS INHIBITORS” (CHIESI FARMACEUTICI S.P.A., priority 2021, published 2024).

Test [1] concerns the target T1, DDR2 (Homo sapiens (Human), UniProt Q16832). Description: DDR2 binding assay (LanthaScreen Europium Kinase Binding assay). The following applies: potency class, read-out: Ki DDR2. Put shortly: (§1)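 TR-FRET tracer displacement: compounds incubated 1 h at room temperature with 5 nM DDR1 (20 nM Tracer 178) or 5 nM DDR2 (10 nM Tracer 178), 2 nM Eu-anti-GST antibody, HEPES pH 7.5 buffer. 665/615 nm ratio read; IC50 from 4-parameter fit, converted to Ki by Cheng-Prusoff.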

Test [2] deals with T1, DDR2. The test can be described thus: DDR2 cell based assay (phospho-ELISA in HEK293T-DDR2 recombinant cells). As to conditions: DDR2 phosphorylation, Type II Collagen stimulation, potency class, read-out: IC50DDR2. The procedure: The inhibition of DDR2 phosphorylation by compounds was evaluated in HEK293T-DDR2 recombinant cells by phospho-ELISA assay. Briefly, HEK293T-DDR2 cells were seeded in poly-D-lysine-coated 24-well plates at a density of 250,000 cells/well and incubated for 1.5 hours at 37° C. and 5% CO2 in DMEM+10% FBS. After that, the medium was changed to serum-free DMEM and cells were incubated for 3 hours. Then. test compounds were added at different concentrations 30 minutes before stimulation with bovine Type II Collagen at […] for further 3 hours. For DDR2 phospho-ELISA assay (DuoSet IC Human Phospho-DDR2; R&D Systems), protein extracts were obtained by adding 60 μl/well of lysis buffer prepared according to the manufacturer's instructions. Protein concentration in the samples was determined by BCA assay and the levels of phospho-DDR2 were determined following R&D Systems indications. Raw data were normalized to maximal inhibition control (0% for normalization) and positive control (100% for normalization; cells treated with 20 μg/ml collagen II) and IC50 parameters were calculated in GraphPad Prism 8.0 software, using sigmoidal dose-response curve fitting with variable slope.

Test [3] concerns the target T2, DDR1 (Homo sapiens (Human), UniProt Q08345). The test can be described thus: DDR1 cell based assay (PathHunter U2OS DDR1 assay). The following applies: U2OS-DDR1 cells, Type II Collagen stimulation, potency class. In short, it runs like this: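 U2OS-DDR1 PathHunter cells preincubated 30 min with compound, then stimulated overnight at 37 °C with 20 μg/ml bovine type II collagen. Luminescent complementation signal read after 1 h detection at room temperature; normalized to vehicle (0%) and collagen-only (100%) controls, IC50 from variable-slope sigmoidal fit.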

Test [4] concerns the target T2, DDR1. The test can be described thus: DDR1 binding assay (LanthaScreen Europium Kinase Binding assay). The following applies: potency class, read-out: Ki DDR1. Put shortly: as §1
(Time-resolved FRET reads energy transfer from a long-lived donor to a nearby acceptor.)

pIC50, pKi: −log10 of the molar value.

T2 sequence (Q08345 19-913): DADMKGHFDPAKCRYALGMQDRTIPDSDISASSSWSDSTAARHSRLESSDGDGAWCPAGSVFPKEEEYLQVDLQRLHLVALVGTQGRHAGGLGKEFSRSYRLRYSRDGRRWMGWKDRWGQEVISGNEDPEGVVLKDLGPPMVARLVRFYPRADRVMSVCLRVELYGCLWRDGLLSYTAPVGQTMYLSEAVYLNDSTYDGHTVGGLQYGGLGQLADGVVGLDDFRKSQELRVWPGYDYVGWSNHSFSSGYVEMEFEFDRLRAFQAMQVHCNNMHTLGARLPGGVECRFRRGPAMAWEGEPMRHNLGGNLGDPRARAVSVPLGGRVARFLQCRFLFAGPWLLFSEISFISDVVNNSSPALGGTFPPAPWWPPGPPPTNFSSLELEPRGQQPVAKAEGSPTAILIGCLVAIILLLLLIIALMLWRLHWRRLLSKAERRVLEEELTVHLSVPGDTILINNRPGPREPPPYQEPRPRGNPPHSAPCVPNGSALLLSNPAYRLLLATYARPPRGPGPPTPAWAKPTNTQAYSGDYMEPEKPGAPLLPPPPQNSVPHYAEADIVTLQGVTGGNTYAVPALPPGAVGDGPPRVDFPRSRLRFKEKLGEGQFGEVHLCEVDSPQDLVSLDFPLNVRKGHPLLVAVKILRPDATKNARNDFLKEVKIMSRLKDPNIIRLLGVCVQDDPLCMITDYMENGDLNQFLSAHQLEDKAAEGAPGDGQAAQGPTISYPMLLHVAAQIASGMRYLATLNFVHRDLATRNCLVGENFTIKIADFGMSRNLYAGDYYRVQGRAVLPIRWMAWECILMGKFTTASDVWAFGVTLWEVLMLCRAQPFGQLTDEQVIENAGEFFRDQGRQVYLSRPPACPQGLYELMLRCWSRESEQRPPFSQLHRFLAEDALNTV
T1 sequence (Q16832 22-855): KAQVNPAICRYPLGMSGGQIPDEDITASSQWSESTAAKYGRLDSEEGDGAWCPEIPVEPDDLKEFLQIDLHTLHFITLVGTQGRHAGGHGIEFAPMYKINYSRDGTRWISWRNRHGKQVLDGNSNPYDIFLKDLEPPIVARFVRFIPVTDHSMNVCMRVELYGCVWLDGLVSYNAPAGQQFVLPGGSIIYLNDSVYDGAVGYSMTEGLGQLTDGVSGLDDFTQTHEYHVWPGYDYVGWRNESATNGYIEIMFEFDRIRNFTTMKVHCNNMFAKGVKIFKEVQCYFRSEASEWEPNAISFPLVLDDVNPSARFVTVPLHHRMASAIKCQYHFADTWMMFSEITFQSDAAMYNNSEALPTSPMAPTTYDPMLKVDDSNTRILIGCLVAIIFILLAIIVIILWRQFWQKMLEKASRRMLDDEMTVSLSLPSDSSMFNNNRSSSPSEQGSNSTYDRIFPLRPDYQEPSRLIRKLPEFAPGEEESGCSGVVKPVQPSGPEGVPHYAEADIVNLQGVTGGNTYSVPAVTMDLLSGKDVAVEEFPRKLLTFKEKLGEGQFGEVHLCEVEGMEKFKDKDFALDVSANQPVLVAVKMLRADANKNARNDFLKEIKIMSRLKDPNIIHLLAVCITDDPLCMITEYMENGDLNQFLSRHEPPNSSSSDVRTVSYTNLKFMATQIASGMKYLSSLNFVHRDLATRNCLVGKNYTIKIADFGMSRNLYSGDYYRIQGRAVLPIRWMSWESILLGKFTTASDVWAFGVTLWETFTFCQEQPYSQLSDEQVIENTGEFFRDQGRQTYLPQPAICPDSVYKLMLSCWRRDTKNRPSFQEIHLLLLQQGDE

What is called pKi is the Ki on a negative log10 scale, so that one unit is a factor of ten. `CC(=O)Nc1ncc(CN2CCc3c(C(=O)Nc4cc(F)cc(C(F)(F)F)c4)csc3C2)cn1` [Example 39, 6-((2-acetamidopyrimidin-5-yl)methyl)-N-(3-fluoro-5-(trifluoromethyl)phenyl)-4,5,6,7-tetrahydrothieno[2,3-c]pyridine-3-carboxamide]: the pKi at DDR2 [1] and on DDR1 [4] was greater than 7.60 throughout. The pIC50 on DDR2 [2] and on DDR1 [3] was 7.30 to 7.60 throughout.
For the compound `CC(=O)Nc1ccc(CN2CCc3c(C(=O)Nc4cc(F)cc(C(F)(F)F)c4)csc3C2)cn1` [Example 42, 6-((6-acetamidopyridin-3-yl)methyl)-N-(3-fluoro-5-(trifluoromethyl)phenyl)-4,5,6,7-tetrahydrothieno[2,3-c]pyridine-3-carboxamide], the pKi at DDR2 [1] and at DDR1 [4] was greater than 7.60 in each case. For the same compound, the pIC50 at DDR2 [2] and against DDR1 [3] was greater than 7.60 throughout.
On to `Nc1ncncc1CN1CCc2c(C(=O)Nc3cc(F)cc(C(F)(F)F)c3)csc2C1` [Example 45, 6-((4-aminopyrimidin-5-yl)methyl)-N-(3-fluoro-5-(trifluoromethyl)phenyl)-4,5,6,7-tetrahydrothieno[2,3-c]pyridine-3-carboxamide], for which the pKi on DDR2 [1] and on DDR1 [4] was greater than 7.60 throughout. In addition, the pIC50 on DDR2 [2] and against DDR1 [3] was greater than 7.60 in each case.
Take `Nc1nccnc1CN1CCc2c(C(=O)Nc3cc(F)cc(C(F)(F)F)c3)csc2C1` [Example 46, 6-((3-aminopyrazin-2-yl)methyl)-N-(3-fluoro-5-(trifluoromethyl)phenyl)-4,5,6,7-tetrahydrothieno[2,3-c]pyridine-3-carboxamide]: the pKi on DDR2 [1] and on DDR1 [4] was greater than 7.60 throughout. Also, the pIC50 at DDR2 [2] and against DDR1 [3] was greater than 7.60 throughout.
On to `CC(F)(F)c1cccc(NC(=O)c2csc3c2CCN(Cc2cnc(N)nc2)C3)c1` [Example 58, 6-((2-aminopyrimidin-5-yl)methyl)-N-(3-(1,1-difluoroethyl)phenyl)-4,5,6,7-tetrahydrothieno[2,3-c]pyridine-3-carboxamide], for which the pKi at DDR2 [1] and at DDR1 [4] was greater than 7.60 throughout. Also, the pIC50 at DDR2 [2] and against DDR1 [3] was 7.30 to 7.60 in each case.
In the case of `Cn1nc(NC(=O)c2csc3c2CCN(Cc2cnc(N)nc2)C3)cc1C(C)(C)C` [Example 63, 6-((2-aminopyrimidin-5-yl)methyl)-N-(5-(tert-butyl)-1-methyl-1H-pyrazol-3-yl)-4,5,6,7-tetrahydrothieno[2,3-c]pyridine-3-carboxamide], the negative-log Ki (pKi) at DDR2 [1] and on DDR1 [4] was greater than 7.60 each time. In addition, the pIC50 on DDR2 [2] and against DDR1 [3] was greater than 7.60 in each case.
With `CC(C)(C)c1cc(NC(=O)c2csc3c2CCN(Cc2cnc(N)nc2)C3)no1` [Example 64, 6-((2-aminopyrimidin-5-yl)methyl)-N-(5-(tert-butyl)isoxazol-3-yl)-4,5,6,7-tetrahydrothieno[2,3-c]pyridine-3-carboxamide], the pKi on DDR2 [1] and at DDR1 [4] was greater than 7.60 each time. The pIC50 on DDR2 [2] and on DDR1 [3] was greater than 7.60 each time.
